Measurements: patent US11161845B2, “Pyrrolopyridine-aniline compounds for treatment of dermal disorders” (Nflection Therapeutics, Inc., priority 2017, dated 2021)
Blank lines part the entries; values can stand above or below the compound they belong to.

What was measured:
[1] = tested on: MDCK-MDR1 cells; test: MDCK-MDR1 bi-directional transport assay; conditions: 5 μM
Procedure: (§1) MDCK-MDR1 is a stable-transfected cell line originating from MDCK cells, with over-expression of human MDR1 gene. The cell line is widely used for the identification and characterization of P-gp substrates and inhibitors.
(§2) MDCK-MDR1 cells were plated into 96-well Millipore Millicell-96 plates at 7,500 cells/75 μL/well and incubated for three days at 37° C. with 5% CO2. Cells were washed with Hank's Balanced Salt Solution (HBSS) with 5 mM HEPES for 30 minutes before starting the experiment. Test compound solutions were prepared by diluting DMSO stock into HBSS buffer, resulting in a final DMSO concentration of 0.1%. Prior to the experiment, cell monolayer integrity was verified by […] electrical resistance (TEER). Transport experiment was initiated by adding test compounds to the apical (75 μL) or basal (250 μL) side. Transport plates were incubated at 37° C. in a humidified incubator with 5% CO2. Samples were taken from the donor and acceptor compartments after one hour and analyzed by liquid chromatography with tandem mass spectrometry (LC/MS/MS).
(§3) Digoxin was used as reference control.
(§4) Apparent permeability (Papp) values were calculated using the following equation: Papp=(dQ/dt)/A/Co; where dQ/dt is the initial rate of amount of test compound transported across cell monolayer, A is the surface area of the filter membrane, and Co is the initial concentration of the test compound, calculated for each direction using a 4-point calibration curve by LC/MS/MS.
(§5) Net flux ratio between the two directional transports was calculated by the following equation: Ratio=Papp, B-A/Papp, A-B; where Papp, B-A and Papp, A-B represent the apparent permeability of test compound from the basal-to-apical and apical-to-basal side of the cellular monolayer, respectively.
(§6) Recovery was calculated based on the compound concentration at the end of the experiment, compared to that at the beginning of the experiment, adjusted for volumes.
(§7) A net flux ratio greater than two was considered a positive result for substrate determination. […] If the addition of a known P-gp inhibitor to the experiment reduces the net flux ratio by a significant amount (more than 50% reduction or reduces the ratio to close to unity), it is likely that the compound tested is a P-gp substrate.

[2] = tested on: P-gp (human MDR1); test: MDCK-MDR1 bi-directional transport assay; conditions: dog; for Papp A→B at 1 h, 5 μM / Papp B→A at 1 h, 5 μM: MDCK-MDR1, Papp
Procedure: as §1, §2, §3, §4, §5, §6, §7

[3] = target: T1, MEK1 (Homo sapiens, UniProt Q02750); test: MEK inhibition assay, Biological Example 1a (33P-ATP, P81 filter-binding); conditions: read-out: Assay 1: biochemical MEK IC50
T1 construct: N-terminal His-tagged recombinant human full length protein; His (N); purchased Invitrogen PV3303; host or cells: insect cells
T1 sequence (Q02750 whole entry): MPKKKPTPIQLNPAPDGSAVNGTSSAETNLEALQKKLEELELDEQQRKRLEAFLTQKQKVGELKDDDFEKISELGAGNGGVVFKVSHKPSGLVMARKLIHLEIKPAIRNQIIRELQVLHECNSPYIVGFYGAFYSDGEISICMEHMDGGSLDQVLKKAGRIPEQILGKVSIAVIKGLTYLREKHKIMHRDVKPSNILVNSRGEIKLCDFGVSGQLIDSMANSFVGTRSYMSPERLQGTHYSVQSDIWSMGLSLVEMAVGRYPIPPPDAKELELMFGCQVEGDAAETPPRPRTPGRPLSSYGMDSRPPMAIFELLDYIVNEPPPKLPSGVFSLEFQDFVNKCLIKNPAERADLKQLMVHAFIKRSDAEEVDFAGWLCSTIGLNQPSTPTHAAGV
Procedure: MEK1 inhibitory activity of compounds were tested using the following procedure. […] Activated in vitro by RAF1. MW=49.2 kDa, GenBank Accession No. NP_002746. • Substrate: 5 μM ERK2 (K52R), • Kinase-dead mutant, (GenBank Accession No. NM_0011949), aa2-358 with N-terminal His6 tag, MW=43.63 kDa, expressed in E. coli.
The substrate was prepared in freshly prepared Reaction Buffer. The kinase was delivered into the substrate solution and gently mixed. Test compounds were delivered in 100% DMSO into the kinase reaction mixture by Acoustic technology (Echo550; nanoliter range), and incubated for 20 min at room temperature. ^33P-ATP was delivered into the reaction mixture to initiate the reaction. The reaction mixture was incubated for 2 hours at room temperature. Kinase activity was detected by P81 filter-binding method.

[4] = S9 stability assay, human liver S9 fraction; type: in vitro ADME; conditions: for CLint: known MEK compounds; for microsomal CLint at 1 μM / half-life at 1 μM: pH 7.4, Table 1, human liver S9 fraction; for microsomal CLint at 1 μM: read-out: CLint; for half-life at 1 μM: read-out: Liver S9 t1/2
Procedure: Compounds were assessed for metabolic stability in human skin by assessing their rate of disappearance from human S9 skin fraction. Similarly, compounds were assessed for metabolic stability in human liver by assessing their rate of disappearance from human S9 liver fraction. The protocol below can be used to assess the difference between skin and hepatic metabolism.
The assay was carried out in 96-well microtiter plates at 37° C. Reaction mixtures (25 μL) contained a final concentration of 1 μM test compound, 2 mg/mL liver or skin S9 protein, and 1 mM NADPH in buffer (100 mM potassium phosphate, pH 7.4 buffer with 1 mM EDTA, 3 mM MgCl2). At each of the time points (0, 15, 30, and 60 minutes), 150 μL of quench solution (100% acetonitrile with 0.1% formic acid) with internal standard was transferred to each well. Besides the zero minute controls, mixtures containing the same components except the NADPH were also prepared as the negative control. Verapamil or testosterone was included as a positive control to verify assay performance. Plates were sealed and centrifuged at 4° C. for 15 minutes at 4000 rpm. The supernatant was transferred to fresh plates for LC/MS/MS analysis.
All samples were analyzed on LC/MS/MS using an AB Sciex API 4000 instrument, coupled to a Shimadzu LC-20AD LC Pump system. Analytical samples were separated using a Waters Atlantis T3 dC18 reverse phase HPLC column (20 mm×2.1 mm) at a flow rate of 0.5 mL/min. The mobile phase consisted of 0.1% formic acid in water (solvent A) and 0.1% formic acid in 100% acetonitrile (solvent B).
The extent of metabolism was calculated as the disappearance of the test compound, compared to the 0-min control reaction incubations. Initial rates were calculated for the compound concentration and used to determine t1/2 values and subsequently, the intrinsic clearance, CLint=(0.693) (1/t1/2 (min)) (mL incubation/mg of S9 protein).

[5] = Plasma LCMS compound levels, in vivo mouse model; design: species or system mice; conditions: for concentration at 1 h: male, C57BL/6J, mouse, plasma; for Plasma LCMS Compound Levels: pre-dose (16 h)
Procedure: These mice were also shaved weekly.
(§8) Week 4 (Experiment end): Skin and blood were collected right before the last morning dose (N=3), 1 hour (N=3 mice), and 2 hours (N=3 mice) after final application; Blood draw: Plasma compound levels (LCMS); Skin biopsy: formalin fixed for histology and p-ERK staining, flash frozen for Western analysis and skin compound levels (LCMS)
(§9) Compound level analysis: Liquid chromatography with mass spectrometry method (LCMS) was used to detect compound levels in the skin and plasma. Tissues were preprocessed prior to LCMS as follows. Tissues were minced and incubated with collagenase and then finally homogenized using the stainless steel beads prior to LCMS analysis. Calibration curves and a QC test were run with each assay.

[6] = Compound levels in neck/back skin (LCMS), in vivo mouse model; design: species or system mice; conditions: topical 1% trametinib
Procedure: as §8
Skin biopsy and GI tract sampling: Skin was wiped down with 100% ethanol and a 1 cm^2 biopsy was obtained from compound application site each mouse at the 25 day end of experiment (except as noted below). The skin was biopsied prior to final dose from 3 mice, 1 hour after last compound application from 3 mice, 2 hours after last compound application from 3 mice. Half of the specimen were immediately flash frozen for LCMS analysis and Western Blot Analysis. Half of the specimen was fixed for 24 hours in 10% formalin and then transferred to ethanol for immunohistochemistry. Gastrointestinal tract was also formalin fixed overnight then transferred to 70% ETOH for storage.
as §9

[7] = tested on: C57BL/6J mice; test: In vivo mouse model, skin and systemic toxicity of topical application (survival)
From the text: This study was designed to assess the skin toxicity and gross systemic toxicity of twice daily topical administration of a compound disclosed herein, as well as to evaluate the effect of metabolic lability on systemic toxicity.
Study Objective: The primary objective of this study was to characterize the skin and systemic toxicity of twice daily topical application of a compound disclosed herein, applied for 25 days in mice. Secondary objectives included determination of the 25-day skin and plasma compound levels of formulations containing three dosages of compound of Ex. 2 after application to 10% body surface area (BSA) murine skin; assessment of gross systemic toxicity from the application of compound of Ex. 2 after twice daily application to 10% BSA murine skin for 25 days; and determination of the correlation of skin and plasma compound levels with associated toxicity.
Mice: 8 week old male C57BL/6J mice (Jackson Laboratories) were shaved prior to start of study and weekly.
Compound application: Compounds were dissolved in a 50% DMSO/50% propyelene glycol vehicle. 0.125 mL of the following compounds were applied to the shaved dorsal back of mice (10% BSA) twice daily for 5 days per week for a total of 24 days. The second dose was applied 8 hours after first morning dose. All mice were shaved once per week at application site.
Oral trametinib was dissolved in 0.5% hydroxypropyl methylcellulose (Sigma-Aldrich) and 0.2% Tween-80 (Sigma-Aldrich) and administered by oral gavage (0.2 mL bolus or 10 mg/kg) once daily 5 days per week. These mice were also shaved weekly.
Weekly (Weeks 0-4): body weight measurements weekly, starting week 0 until experiment end; photographs of dorsal back and face of each mouse weekly, starting week 0 until experiment end; skin; and gross stool analysis assessed weekly for heme color, starting week 0 until experiment end.
The study planned for the mice to be sacrificed at Day 25.
Kaplan Meier curves were analyzed to determine progression to skin toxicity for each arm as compared with vehicle. T-test were used to compare compound levels at each dosage. Ki-67+ cells and p-ERK expression were also assessed on a cellular level via immunostaining. Western blots informed semi-quantitative changes in p-ERK expression.

Compound: C[C@H]1O[C@@H](O[C@H]2[C@@H](O)C[C@H](O[C@H]3[C@@H](O)C[C@H](O[C@H]4CC[C@@]5(C)[C@H](CC[C@@H]6[C@@H]5C[C@@H](O)[C@]5(C)[C@@H](C7=CC(=O)OC7)CC[C@]65O)C4)O[C@@H]3C)O[C@@H]2C)C[C@H](O)[C@@H]1O [Digoxin]
Recover Rate [1]: 96%
Papp, A-B Value ([1]; single values): 1.6 ×10⁻⁶ cm/s
Papp, B-A Value ([1]; single values): 14.1 ×10⁻⁶ cm/s
efflux ratio at 1 h, 5 μM ([2]; MDCK-MDR1): 9.7
Papp A→B at 1 h, 5 μM ([2]; A-B Mean): 1.5 ×10⁻⁶ cm/s
Papp A→B at 1 h, 5 μM ([2]; A-B Value, single values): 1.3 ×10⁻⁶ cm/s
Papp B→A at 1 h, 5 μM ([2]; B-A Mean): 14.3 ×10⁻⁶ cm/s
Papp B→A at 1 h, 5 μM ([2]; B-A Value, single values): 14.6 ×10⁻⁶ cm/s

Compound: C#Cc1ccc(Nc2c(C(=O)NOCCO)c3cccnc3n2C)c(F)c1 [Example 3, 2-((4-Ethynyl-2-fluorophenyl)amino)—N-(2-hydroxyethoxy)-1-methyl-1H-pyrrolo[2,3-b]pyridine-3-carboxamide]
IC50 [3]: 2450 nM

Compound: O=C(NOC[C@H](O)CO)c1ccc(F)c(F)c1Nc1ccc(I)cc1F [Example C2]
CLint [4]: 1.02 μL/min/mg protein
microsomal CLint at 1 μM [4]: 1.02 µL/min/mg
half-life at 1 μM [4]: 5.67 h

Compound: CC(=O)Nc1cccc(-n2c(=O)n(C3CC3)c(=O)c3c(Nc4ccc(I)cc4F)n(C)c(=O)c(C)c32)c1 [Example C6]
CLint [4]: 0.86 μL/min/mg protein
microsomal CLint at 1 μM [4]: 0.86 µL/min/mg
half-life at 1 μM [4]: 6.7 h

Compound: CC(=O)Nc1cccc(-n2c(=O)n(C3CC3)c(=O)c3c(Nc4ccc(I)cc4F)n(C)c(=O)c(C)c32)c1 [trametinib, reference compound]
concentration at 1 h ([5]; 10 mg/kg, oral trametinib): 0.0751 µg/mL
concentration at 1 h ([5]; topical 1% trametinib): 2.81 µg/mL
Plasma LCMS Compound Levels ([5]; oral trametinib): 39.93 ng/mL
Plasma LCMS Compound Levels ([5]; topical 1% trametinib): 1339.33 ng/mL
Compound Levels in Neck/Back Skin ([6]; 1 h): 3626.06 µg/mL
Compound Levels in Neck/Back Skin ([6]; pre-dose (16 h)): 4520.39 µg/mL
Survival Rates ([7]; oral trametinib 0.75 mg/kg daily gavage 5x/week, Day 0): 100%
Survival Rates ([7]; oral trametinib 0.75 mg/kg daily gavage 5x/week, Day 3): 90%
Survival Rates ([7]; oral trametinib 0.75 mg/kg daily gavage 5x/week, Day 6): 70%
Survival Rates ([7]; oral trametinib 0.75 mg/kg daily gavage 5x/week, Day 9): 70%
Survival Rates ([7]; oral trametinib 0.75 mg/kg daily gavage 5x/week, Day 12): 70%
Survival Rates ([7]; oral trametinib 0.75 mg/kg daily gavage 5x/week, Day 15): 70%
Survival Rates ([7]; oral trametinib 0.75 mg/kg daily gavage 5x/week, Day 18): 70%
Survival Rates ([7]; oral trametinib 0.75 mg/kg daily gavage 5x/week, Day 21): 70%
Survival Rates ([7]; oral trametinib 0.75 mg/kg daily gavage 5x/week, Day 24): 70%
Survival Rates ([7]; oral trametinib 0.75 mg/kg daily gavage 5x/week, Day 25): 70%
Survival Rates ([7]; topical Trametinib 1%, twice daily 5 days per week, 10% BSA, Day 0): 100%
Survival Rates ([7]; topical Trametinib 1%, twice daily 5 days per week, 10% BSA, Day 3): 100%
Survival Rates ([7]; topical Trametinib 1%, twice daily 5 days per week, 10% BSA, Day 6): 100%
Survival Rates ([7]; topical Trametinib 1%, twice daily 5 days per week, 10% BSA, Day 9): 100%
Survival Rates ([7]; topical Trametinib 1%, twice daily 5 days per week, 10% BSA, Day 12): 100%
Survival Rates ([7]; topical Trametinib 1%, twice daily 5 days per week, 10% BSA, Day 15): 80%
Survival Rates ([7]; topical Trametinib 1%, twice daily 5 days per week, 10% BSA, Day 18): 0%
Survival Rates ([7]; topical Trametinib 1%, twice daily 5 days per week, 10% BSA, Day 21): 0%
Survival Rates ([7]; topical Trametinib 1%, twice daily 5 days per week, 10% BSA, Day 24): 0%
Survival Rates ([7]; topical Trametinib 1%, twice daily 5 days per week, 10% BSA, Day 25): 0%
mortality / weight loss ([7]; topically-applied 1%, Day 18): found dead, or had to be sacrificed due to unacceptable weight loss

Other lines, results leading:

CLint [4]: 10.37 μL/min/mg protein
microsomal CLint at 1 μM [4]: 10.4 µL/min/mg
half-life at 1 μM [4]: 0.55 h
Compound: O=C(NOCC1CC1)c1ccc(F)c(F)c1Nc1ccc(I)cc1Cl [Example C1]

CLint [4]: 1.25 μL/min/mg protein
microsomal CLint at 1 μM [4]: 1.25 µL/min/mg
half-life at 1 μM [4]: 4.62 h
Compound: Cn1cnc2c(F)c(Nc3ccc(Br)cc3F)c(C(=O)NOCCO)cc21 [Example C3]

CLint [4]: 2.50 μL/min/mg protein
microsomal CLint at 1 μM [4]: 2.5 µL/min/mg
half-life at 1 μM [4]: 2.3 h
Compound: Cn1cnc2c(F)c(Nc3ccc(Br)cc3Cl)c(C(=O)NOCCO)cc21 [Example C4]

CLint [4]: 6.98 μL/min/mg protein
microsomal CLint at 1 μM [4]: 6.98 µL/min/mg
half-life at 1 μM [4]: 0.833 h
Compound: O=C(NOCCO)c1ccc2cncn2c1Nc1ccc(I)cc1F [Example C5]

CLint [4]: 1.29 μL/min/mg protein
microsomal CLint at 1 μM [4]: 1.29 µL/min/mg
half-life at 1 μM [4]: 4.47 h
Compound: O=C(NC[C@@H](O)CO)c1ccncc1Nc1ccc(I)cc1F [Example C7]
